Measurements from patent publication US4454136A, “Substituted benzopyranotriazoles and antiallergic use” (Beecham Group Limited, priority 1980, dated 1984).

System: rat PCA
Assay: Passive Cutaneous Anaphylaxis (PCA) in rats
Type: in vivo, Male Wistar rats
Settings: sc
Experimental: Serum containing heat-labile homocytotropic antibody was raised in rats to crystallized ovalbumin XOA by the method of Mota (I. Mota, Immunology, 7, 681, (1964)) using Bordettela pertussis vaccine as adjuvant.
Passive cutaneous anaphylaxis (PCA) was carried out by a method based on that of Ovary and Bier, (A. Ovary and O. G. Bier, Proc. Soc. Exp. Bio. Med 81, 584, (1952)) as modified by Goose and Blair. (Immunology 16, 749 (1969)).
Male Wistar rats of 250-300 g were give 0.1 ml of each of six twofold serial dilutions of pooled antiserum in 0.9% saline injected intradermally into separate sites on their shaved backs. Later (72 hours) the animals were challenged by intravenous injection of 0.3 ml of a 1% solution of ovalbumin in an isotonic solution of saline buffered with 0.05 M, pH 7.2, Sorenson Buffer (PBS), mixed with 0.2 ml of a 5% solution of Pontamine Sky Blue (6BX C.I. 24410, Raymond A. Lamb, London) in isotonic saline. The rats were killed after 20 minutes and the diameter of the blue wheals at the antibody injection sites were measured on the outer surface of the skin. The starting dilution of the serum was adjusted so that there was no response, after challenge, at the injection site of the highest dilution and a maximum response at the lowest dilutions. Typically six twofold serial dilutions of the serum from 1/4 to 1/128 were used.
Compounds were tested for their ability to reduce the diameter of the wheals at those intradermal sites which in control animals gave less than maximum response. Each dose of the compound was administered to six rats at a measured time prior to intravenous challenge with ovalbumin. Control groups of six rats were given the same volume (0.2 ml: 100 g^-1) of carrier fluid at the same time prior to the challenge.
The results were calculated as follows: % inhibition of PCA=100 (1-a/b) where a=the sum of the diameters of the wheals produced in the test animal at the sites of antibody dilutions as used in control groups and b=the mean sum of the diameters of the wheals produced in the control groups of animals at those antibody sites where at least five out of six of the animals gave less than maximum response. A typical variation in the control group of animals was SEM±6%.
*Time between administration of compound and antigen challenge.

## Cc1c(OS(C)(=O)=O)ccc2c(=O)c3[nH]nnc3oc12 [Example 1e, 6-Mesyloxy-5-methyl-9-oxo-1H,9H-benzopyran o[2,3-d]-v-triazole]
PBS with NaHCO3, 10' before antigen challenge, 5 mg/kg
  % inhibition of rat PCA: 42%
PBS with NaHCO3, 10' before antigen challenge, 20 mg/kg
  % inhibition of rat PCA: 57%
PBS with NaHCO3, 30' before antigen challenge, 5 mg/kg
  % inhibition of rat PCA: 18%
PBS with NaHCO3, 30' before antigen challenge, 20 mg/kg
  % inhibition of rat PCA: 41%

## Cc1c(O)ccc2c(=O)c3[nH]nnc3oc12 [Example 1f, 6-Hydroxy-5-methyl-9-oxo-1H,9H-benzopyrano[2,3-d]-v-triazole]
PBS with NaHCO3, 10' before antigen challenge, 10 mg/kg
  % inhibition of rat PCA: 32%
PBS with NaHCO3, 30' before antigen challenge, 10 mg/kg
  % inhibition of rat PCA: 19%
